# In ChEMBL document CHEMBL1201862, “PubChem BioAssay data set” (2004):
#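 Growth conditions: 96-well plates. Treatment: test compound, 48 hours, 5 concentrations. Analysis: linear interpolation between bracketing concentrations; unreached endpoints set to highest concentration. GI50 = concentration required for 50% inhibition of growth.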 Activity calls are given as the source filed them. Cut-off read from the data, not from the text of the source: active = GI50 up to about 1.1 µM and inactive = higher.
# Assays:
# Assay in all cases: NCI anticancer screen, dose series, 48 h
# CAKI-1 = system: CAKI-1
# OVCAR-5 = system: OVCAR-5
# KM12 = system: KM12
# LOX IMVI = system: LOX IMVI
# HCC 2998 = system: HCC 2998
# UO-31 = system: UO-31
# LXFL 529 = system: LXFL 529
# 786-0 = system: 786-0
# HCT-15 = system: HCT-15
# EKVX = system: EKVX
# NCI-H460 = system: NCI-H460
# HT-29 = system: HT-29
# U-251 = system: U-251
# A549 = system: A549
# M14 = system: M14
# ACHN = system: ACHN
# COLO 205 = system: COLO 205
SMILES,GI50 (CAKI-1),GI50 (OVCAR-5),GI50 (KM12),GI50 (LOX IMVI),GI50 (HCC 2998),GI50 (UO-31),GI50 (LXFL 529),GI50 (786-0),GI50 (HCT-15),GI50 (EKVX),GI50 (NCI-H460),GI50 (HT-29),GI50 (U-251),GI50 (A549),GI50 (M14),GI50 (ACHN),GI50 (COLO 205)
COC1(C)C(=O)N2C1N(C(=O)OC(C)(C)C)CC2(C)C (stereo not given),> 100 µM (inactive),> 100 µM (inactive),> 100 µM (inactive),23.5 µM (inactive),> 100 µM (inactive),> 100 µM (inactive),> 100 µM (inactive),> 100 µM (inactive),63.2 µM,> 100 µM (inactive),81.3 µM (inactive),> 100 µM (inactive),> 100 µM (inactive),> 100 µM (inactive),> 100 µM (inactive),> 100 µM (inactive),36.5 µM (inactive)
N#CC(C#N)=C1SCC(=O)CS1,> 100 µM (inactive),> 100 µM (inactive),> 100 µM (inactive),> 100 µM (inactive),> 100 µM (inactive),> 100 µM (inactive),> 100 µM (inactive),> 100 µM (inactive),> 100 µM,> 100 µM (inactive),> 100 µM (inactive),> 100 µM (inactive),> 100 µM (inactive),> 100 µM (inactive),> 100 µM (inactive),,> 100 µM (inactive)
O=C1CSC(/C(=C/c2ccccc2)c2nc3ccccc3[nH]2)=N1,> 100 µM (inactive),> 100 µM (inactive),32.4 µM (inactive),> 100 µM (inactive),> 100 µM (inactive),> 100 µM (inactive),47.4 µM (inactive),65.2 µM (inactive),> 100 µM,> 100 µM (inactive),> 100 µM (inactive),73.6 µM (inactive),23.3 µM (inactive),72.6 µM (inactive),57 µM (inactive),> 100 µM (inactive),> 100 µM (inactive)
C=Cc1c(-c2ccccc2)cnc2[nH]c3ccccc3c12,> 50 µM (inactive),> 50 µM (inactive),2.43 µM (inactive),> 50 µM (inactive),> 50 µM (inactive),> 50 µM (inactive),> 50 µM (inactive),> 50 µM (inactive),> 50 µM,3.4 µM (inactive),> 50 µM (inactive),> 50 µM (inactive),> 50 µM (inactive),> 50 µM (inactive),> 50 µM (inactive),> 50 µM (inactive),> 50 µM (inactive)
CCCC(O)c1cn(-c2cccc(S(=O)(=O)O)c2)nn1 (stereo not given),> 100 µM (inactive),> 100 µM (inactive),> 100 µM (inactive),> 100 µM (inactive),> 100 µM (inactive),> 100 µM (inactive),> 100 µM (inactive),> 100 µM (inactive),> 100 µM,> 100 µM (inactive),> 100 µM (inactive),> 100 µM (inactive),> 100 µM (inactive),> 100 µM (inactive),> 100 µM (inactive),> 100 µM (inactive),> 100 µM (inactive)
C/C(=N/Nc1ccc([N+](=O)[O-])cc1[N+](=O)[O-])C(CC(C(=O)Nc1ccccc1C)/C(C)=N\Nc1ccc([N+](=O)[O-])cc1[N+](=O)[O-])C(=O)Nc1ccccc1C (stereo not given),14.2 µM (inactive),16.9 µM (inactive),15.3 µM (inactive),14.4 µM (inactive),21.6 µM (inactive),11.5 µM (inactive),14.3 µM (inactive),17.9 µM (inactive),32.9 µM,18.2 µM (inactive),12.5 µM (inactive),14.8 µM (inactive),6.12 µM (inactive),19.7 µM (inactive),18 µM (inactive),19.7 µM (inactive),12.8 µM (inactive)
N#CC1CC2(C(=O)C1=O)c1ccccc1-c1ccccc12 (stereo not given),> 100 µM (inactive),> 100 µM (inactive),> 100 µM (inactive),> 100 µM (inactive),> 100 µM (inactive),> 100 µM (inactive),> 100 µM (inactive),> 100 µM (inactive),> 100 µM,> 100 µM (inactive),> 100 µM (inactive),> 100 µM (inactive),> 100 µM (inactive),> 100 µM (inactive),> 100 µM (inactive),> 100 µM (inactive),> 100 µM (inactive)
N#CCC(=O)N1CCCCCCC1,> 100 µM (inactive),> 100 µM (inactive),76.4 µM (inactive),> 100 µM (inactive),69.3 µM (inactive),> 100 µM (inactive),77.8 µM (inactive),> 100 µM (inactive),16.8 µM,> 100 µM (inactive),42.7 µM (inactive),29.6 µM (inactive),> 100 µM (inactive),> 100 µM (inactive),> 100 µM (inactive),> 100 µM (inactive),14.1 µM (inactive)
O=C(COC(=O)c1cccc2c(=O)c3ccccc3[nH]c12)Nc1ccc(Cl)cc1,> 100 µM (inactive),,28.9 µM (inactive),23.2 µM (inactive),> 100 µM (inactive),9.64 µM (inactive),61.7 µM (inactive),23.1 µM (inactive),,8.28 µM (inactive),63.4 µM (inactive),67.9 µM (inactive),24.9 µM (inactive),> 100 µM (inactive),78.9 µM (inactive),32.8 µM (inactive),> 100 µM (inactive)
COC(=O)C1=C(O)C(O)=C(C(=O)OC)CC1,> 100 µM (inactive),> 100 µM (inactive),> 100 µM (inactive),> 100 µM (inactive),> 100 µM (inactive),> 100 µM (inactive),> 100 µM (inactive),> 100 µM (inactive),> 100 µM,> 100 µM (inactive),> 100 µM (inactive),> 100 µM (inactive),> 100 µM (inactive),37 µM (inactive),> 100 µM (inactive),> 100 µM (inactive),> 100 µM (inactive)
CC(C)(C)NNC(=O)/C(=C/c1ccc([N+](=O)[O-])cc1)NC(=O)c1ccccc1,> 100 µM (inactive),> 100 µM (inactive),> 100 µM (inactive),17.2 µM (inactive),> 100 µM (inactive),> 100 µM (inactive),> 100 µM (inactive),48.5 µM (inactive),> 100 µM,> 100 µM (inactive),60.1 µM (inactive),> 100 µM (inactive),39 µM (inactive),> 100 µM (inactive),> 100 µM (inactive),> 100 µM (inactive),29 µM (inactive)
COc1ccc(Nc2nc3c(N)cc(C(F)(F)F)cc3nc2-c2ccccc2)cc1,> 100 µM (inactive),> 100 µM (inactive),83 µM (inactive),> 100 µM (inactive),> 100 µM (inactive),> 100 µM (inactive),78.2 µM (inactive),35.6 µM (inactive),> 100 µM,61.9 µM (inactive),60.4 µM (inactive),,83.2 µM (inactive),> 100 µM (inactive),79.6 µM (inactive),> 100 µM (inactive),> 100 µM (inactive)
